Test system: carrageenan induced paw edema
Assay: Anti-inflammatory activity: acute carrageenan induced paw edema in rats
Format: in vivo, Wister rats
Settings: 10 mg kg^−1 indomethacin mol equivalent; for % inhibition of edema / Mean edema thickness: intraperitoneally; for Mean edema thickness: mean ± SE; for Potency (% inhibition of edema relative to that of indomethacin reference standard): at 4 h effect
Procedure: The anti-inflammatory activity of the tested compounds was determined in vivo by the acute carrageenan induced paw edema standard method in rats. See, Naumov, et al., Bioorg. Med. Chem. Lett, 25: 2314-2320 (2015), Tiwari, et al., Org. Biomol. Chem, 12: 7238-7249 (2014), Girgis, et al., Eur. J. Med. Chem, 50: 1-8 (2012), Barsoum, et al., Eur. J. Med. Chem, 44: 2172-2177 (2009), Girgis, et al., Eur. J. Med. Chem, 44: 1972-1977 (2009), Girgis, et al., Eur. J. Med. Chem, 44: 1257-1264 (2009), Girgis, et al., Eur. J. Med. Chem, 44: 91-100 (2009), Girgis, et al., Eur. J. Med. Chem, 43: 2116-2121 (2008), Girgis, et al., Bioorg. Med. Chem, 14: 8527-8532 (2006), and Barsoum, et al., Bioorg. Med. Chem, 14: 3929-3937 (2006).
Adult Wister rats of either sex (pregnant female animals were excluded) weighing 120-150 g were divided into 18 groups of 6 animals each. […] The control group was given DMSO only. Carrageenan paw edema was induced by subcutaneous injection of freshly prepared 1% solution of carrageenan in saline (0.9%, 0.1 ml per rat) into subplantar tissue of the right hind paw of rats. The thickness of the paw was measured (in mm) after successive time intervals (1, 2,3,4 and 24 h) and compared with the initial hind paw thickness of each rat for determining the edema thickness. Data were collected, checked, revised and analyzed. Quantitative variables from normal distribution were expressed as means±SE “standard error”. The anti-inflammatory activity was expressed as percentage inhibition of edema thickness in treated animals in comparison with the control group according to eqn. (1)
Where, Vc and Vt are the mean of edema paw thickness for the control and tested compound treated animal groups, respectively.

Which results are given for COc1cc(/C=C/C(=O)CC(=O)/C=C/c2ccc(OC(=O)[C@H](C)NC(=O)OCC3c4ccccc4-c4ccccc43)c(OC)c2)ccc1OC(=O)[C@H](C)NC(=O)OCC1c2ccccc2-c2ccccc21 [Compound 14]?
% inhibition of edema (1 h): 12%; Mean edema thickness (1 h): 2.12 ± 0.29 mm; % inhibition of edema (2 h): 23%; Mean edema thickness (2 h): 1.59 ± 0.15 mm; % inhibition of edema (3 h): 43%; Mean edema thickness (3 h): 1.02 ± 0.17 mm; % inhibition of edema (4 h): 56%; Mean edema thickness (4 h): 0.62 ± 0.09 mm; % inhibition of edema (24 h): 51%; Mean edema thickness (24 h): 0.41 ± 0.05 mm; Potency (% inhibition of edema relative to that of indomethacin reference standard): 64

How did the “% inhibition of edema” value (1 h) turn out when COc1cc(/C=C/C(=O)CC(=O)/C=C/c2ccc(OC(=O)[C@@H](NC(=O)OC(C)(C)C)C(C)C)c(OC)c2)ccc1OC(=O)[C@@H](NC(=O)OC(C)(C)C)C(C)C [Compound 30] was run?
The value was 13%.

What about the Mean edema thickness (1 h) of the same compound?
Its Mean edema thickness is 2.09 ± 0.21 mm.

What about the “% inhibition of edema” value (2 h) of the same compound?
Its value is 24%.

What about the Mean edema thickness (2 h) of the same compound?
The Mean edema thickness was 1.57 ± 0.19 mm.

And the “% inhibition of edema” value (3 h)?
The value was 25%.

What about the Mean edema thickness (3 h) of the same compound?
Its Mean edema thickness is 1.34 ± 0.11 mm.

And the “% inhibition of edema” value (4 h)?
Its value is 43%.

And the Mean edema thickness (4 h)?
Its Mean edema thickness is 0.80 ± 0.08 mm.

And the “% inhibition of edema” value (24 h)?
Its value is 30%.

What about the Mean edema thickness (24 h) of the same compound?
Its Mean edema thickness is 0.58 ± 0.10 mm.

And the “Potency (% inhibition of edema relative to that of indomethacin reference standard)” value?
The value was 49.

Which “% inhibition of edema” value (1 h) does the source give for COc1cc(/C=C/C(=O)CC(=O)/C=C/c2ccc(OC(=O)[C@H](Cc3ccccc3)NC(=O)OCC3c4ccccc4-c4ccccc43)c(OC)c2)ccc1OC(=O)[C@H](Cc1ccccc1)NC(=O)OCC1c2ccccc2-c2ccccc21 [Compound 18] here?
The value was 10%.

What about the Mean edema thickness (1 h) of the same compound?
Its Mean edema thickness is 2.17 ± 0.24 mm.

And the “% inhibition of edema” value (2 h)?
The value was 41%.

What about the Mean edema thickness (2 h) of the same compound?
The Mean edema thickness was 1.22 ± 0.16 mm.

And the “% inhibition of edema” value (3 h)?
Its value is 54%.

What about the Mean edema thickness (3 h) of the same compound?
Its Mean edema thickness is 0.82 ± 0.08 mm.

And the “% inhibition of edema” value (4 h)?
Its value is 60%.

And the Mean edema thickness (4 h)?
Its Mean edema thickness is 0.56 ± 0.04 mm.

What about the “% inhibition of edema” value (24 h) of the same compound?
Its value is 5%.

And the Mean edema thickness (24 h)?
Its Mean edema thickness is 0.79 ± 0.02 mm.

What about the “Potency (% inhibition of edema relative to that of indomethacin reference standard)” value of the same compound?
The value was 69.

Which results are given for COc1cc(/C=C/C(=O)CC(=O)/C=C/c2ccc(OC(=O)[C@@H](C)NC(=O)OCc3ccccc3)c(OC)c2)ccc1OC(=O)[C@@H](C)NC(=O)OCc1ccccc1 [Compound 19]?
% inhibition of edema (1 h): 82%; Mean edema thickness (1 h): 0.43 ± 0.08 mm; % inhibition of edema (2 h): 89%; Mean edema thickness (2 h): 0.23 ± 0.04 mm; % inhibition of edema (3 h): 95%; Mean edema thickness (3 h): 0.09 ± 0.03 mm; % inhibition of edema (4 h): 100%; Mean edema thickness (4 h): 0.00 ± 0.00 mm; % inhibition of edema (24 h): 49%; Mean edema thickness (24 h): 0.42 ± 0.06 mm; Potency (% inhibition of edema relative to that of indomethacin reference standard): 115

COc1cc(/C=C/C(=O)CC(=O)/C=C/c2ccc(OC(=O)[C@@H](C)N)c(OC)c2)ccc1OC(=O)[C@@H](C)N.Cl.Cl [Compound 37] was tested. Which “% inhibition of edema” value (1 h) did it give?
Its value is 61%.

What about the Mean edema thickness (1 h) of the same compound?
The Mean edema thickness was 0.95 ± 0.11 mm.

What about the “% inhibition of edema” value (2 h) of the same compound?
Its value is 62%.

What about the Mean edema thickness (2 h) of the same compound?
Its Mean edema thickness is 0.79 ± 0.13 mm.

What about the “% inhibition of edema” value (3 h) of the same compound?
The value was 74%.

And the Mean edema thickness (3 h)?
Its Mean edema thickness is 0.46 ± 0.09 mm.

What about the “% inhibition of edema” value (4 h) of the same compound?
The value was 96%.

And the Mean edema thickness (4 h)?
Its Mean edema thickness is 0.06 ± 0.01 mm.

And the “% inhibition of edema” value (24 h)?
Its value is 29%.

And the Mean edema thickness (24 h)?
The Mean edema thickness was 0.59 ± 0.07 mm.

What about the “Potency (% inhibition of edema relative to that of indomethacin reference standard)” value of the same compound?
The value was 110.

What does the source list for COc1cc(/C=C/C(=O)CC(=O)/C=C/c2ccc(OC(=O)[C@H](C)NC(=O)OC(C)(C)C)c(OC)c2)ccc1OC(=O)[C@H](C)NC(=O)OC(C)(C)C [Compound 24]?
% inhibition of edema (1 h): 6%; Mean edema thickness (1 h): 2.26 ± 0.20 mm; % inhibition of edema (2 h): 11%; Mean edema thickness (2 h): 1.84 ± 0.17 mm; % inhibition of edema (3 h): 20%; Mean edema thickness (3 h): 1.44 ± 0.14 mm; % inhibition of edema (4 h): 28%; Mean edema thickness (4 h): 1.04 ± 0.18 mm; % inhibition of edema (24 h): 5%; Mean edema thickness (24 h): 0.79 ± 0.17 mm; Potency (% inhibition of edema relative to that of indomethacin reference standard): 32

What does the source list for COc1cc(/C=C/C(=O)CC(=O)/C=C/c2ccc(OC(=O)[C@H](C)N)c(OC)c2)ccc1OC(=O)[C@H](C)N.Cl.Cl [Compound 35]?
% inhibition of edema (1 h): 37%; Mean edema thickness (1 h): 1.51 ± 0.12 mm; % inhibition of edema (2 h): 42%; Mean edema thickness (2 h): 1.19 ± 0.10 mm; % inhibition of edema (3 h): 53%; Mean edema thickness (3 h): 0.85 ± 0.09 mm; % inhibition of edema (4 h): 66%; Mean edema thickness (4 h): 0.47 ± 0.04 mm; % inhibition of edema (24 h): 16%; Mean edema thickness (24 h): 0.70 ± 0.06 mm; Potency (% inhibition of edema relative to that of indomethacin reference standard): 76

With COc1ccc2c(c1)c(CC(=O)O)c(C)n2C(=O)c1ccc(Cl)cc1 [Compound 2] as the compound, how does the “% inhibition of edema” value (1 h) read?
The value was 53%.

What about the Mean edema thickness (1 h) of the same compound?
The Mean edema thickness was 1.11 ± 0.12 mm.

What about the “% inhibition of edema” value (2 h) of the same compound?
The value was 59%.

And the Mean edema thickness (2 h)?
The Mean edema thickness was 0.85 ± 0.09 mm.

What about the “% inhibition of edema” value (3 h) of the same compound?
Its value is 67%.

What about the Mean edema thickness (3 h) of the same compound?
Its Mean edema thickness is 0.59 ± 0.06 mm.

What about the “% inhibition of edema” value (4 h) of the same compound?
Its value is 87%.

What about the Mean edema thickness (4 h) of the same compound?
The Mean edema thickness was 0.18 ± 0.03 mm.

And the “% inhibition of edema” value (24 h)?
The value was 86%.

What about the Mean edema thickness (24 h) of the same compound?
The Mean edema thickness was 0.12 ± 0.02 mm.

And the “Potency (% inhibition of edema relative to that of indomethacin reference standard)” value?
Its value is 100.

Which “% inhibition of edema” value (1 h) does the source give for COc1cc(/C=C/C(=O)CC(=O)/C=C/c2ccc(OC(=O)[C@H](Cc3ccccc3)NC(=O)OCc3ccccc3)c(OC)c2)ccc1OC(=O)[C@H](Cc1ccccc1)NC(=O)OCc1ccccc1 [Compound 11] here?
The value was 59%.

And the Mean edema thickness (1 h)?
Its Mean edema thickness is 1.00 ± 0.07 mm.

What about the “% inhibition of edema” value (2 h) of the same compound?
Its value is 24%.

And the Mean edema thickness (2 h)?
Its Mean edema thickness is 1.56 ± 0.09 mm.

What about the “% inhibition of edema” value (3 h) of the same compound?
The value was 9%.

What about the Mean edema thickness (3 h) of the same compound?
Its Mean edema thickness is 1.63 ± 0.16 mm.

What about the “% inhibition of edema” value (4 h) of the same compound?
The value was 5%.

And the Mean edema thickness (4 h)?
The Mean edema thickness was 1.38 ± 0.10 mm.

And the “% inhibition of edema” value (24 h)?
The value was 1%.

What about the Mean edema thickness (24 h) of the same compound?
The Mean edema thickness was 0.82 ± 0.13 mm.

And the “Potency (% inhibition of edema relative to that of indomethacin reference standard)” value?
Its value is 6.

How did the “% inhibition of edema” value (1 h) turn out when COc1cc(/C=C/C(=O)CC(=O)/C=C/c2ccc(OC(=O)[C@@H](C)NC(=O)OC(C)(C)C)c(OC)c2)ccc1OC(=O)[C@@H](C)NC(=O)OC(C)(C)C [Compound 26] was run?
The value was 22%.

What about the Mean edema thickness (1 h) of the same compound?
Its Mean edema thickness is 1.87 ± 0.13 mm.

What about the “% inhibition of edema” value (2 h) of the same compound?
The value was 29%.

What about the Mean edema thickness (2 h) of the same compound?
The Mean edema thickness was 1.46 ± 0.21 mm.

What about the “% inhibition of edema” value (3 h) of the same compound?
The value was 39%.

And the Mean edema thickness (3 h)?
The Mean edema thickness was 1.09 ± 0.11 mm.

What about the “% inhibition of edema” value (4 h) of the same compound?
The value was 42%.

And the Mean edema thickness (4 h)?
Its Mean edema thickness is 0.81 ± 0.08 mm.

And the “% inhibition of edema” value (24 h)?
The value was 37%.

And the Mean edema thickness (24 h)?
Its Mean edema thickness is 0.52 ± 0.05 mm.

And the “Potency (% inhibition of edema relative to that of indomethacin reference standard)” value?
Its value is 48.

Reference: patent US10660967B2, “Curcumin conjugates and methods of use thereof” (priority 2016, dated 2020)
